Measurements: ChEMBL document CHEMBL5724914, “Linking interpersonal differences in gut microbiota composition and drug biotransformation activity” (2024)

Key:
[1] = The drug is tested on Z-003 corresponding to pig gut metagenome with ENA study accession number: PRJEB37062 and ENA sample accession number: ERS12561803 for biotransformation under anaerobic condition. The drug concentrations were measured over 9 timepoints collected between 0 and 24 hours of incubation by liquid-chromatography-coupled mass spectrometry (LC–MS); details: 2 µM
[2] = human gut metagenome, 24 h, 2 µM
[3] = human gut metagenome, 24 h, 2 µM; remark: listed apart in the source
[4] = The drug is tested on WLS-310 corresponding to human gut metagenome with ENA study accession number: PRJEB37062 and ENA sample accession number: ERS12561785 for biotransformation under anaerobic condition. The drug concentrations were measured over 9 timepoints collected between 0 and 24 hours of incubation by liquid-chromatography-coupled mass spectrometry (LC–MS); details: 2 µM
[5] = human gut metagenome, 24 h, 2 µM; remark: listed apart in the source
[6] = The drug is tested on Z-028 corresponding to mouse gut metagenome with ENA study accession number: PRJEB37062 and ENA sample accession number: ERS12561827 for biotransformation under anaerobic condition. The drug concentrations were measured over 9 timepoints collected between 0 and 24 hours of incubation by liquid-chromatography-coupled mass spectrometry (LC–MS); details: 2 µM
[7] = human gut metagenome, 24 h, 2 µM; remark: listed apart in the source
[8] = human gut metagenome, 24 h, 2 µM; remark: listed apart in the source
[9] = The drug is tested on Z-006 corresponding to mouse gut metagenome with ENA study accession number: PRJEB37062 and ENA sample accession number: ERS12561806 for biotransformation under anaerobic condition. The drug concentrations were measured over 9 timepoints collected between 0 and 24 hours of incubation by liquid-chromatography-coupled mass spectrometry (LC–MS); details: 2 µM
[10] = human gut metagenome, 24 h, 2 µM; remark: listed apart in the source
[11] = human gut metagenome, 24 h, 2 µM; remark: listed apart in the source
[12] = human gut metagenome, 24 h, 2 µM; remark: listed apart in the source
[13] = The drug is tested on Z-012 corresponding to metagenome with ENA study accession number: PRJEB37062 and ENA sample accession number: ERS12561812 for biotransformation under anaerobic condition. The drug concentrations were measured over 9 timepoints collected between 0 and 24 hours of incubation by liquid-chromatography-coupled mass spectrometry (LC–MS); details: 2 µM
[14] = The drug is tested on WLS-240 corresponding to human gut metagenome with ENA study accession number: PRJEB37062 and ENA sample accession number: ERS12561773 for biotransformation under anaerobic condition. The drug concentrations were measured over 9 timepoints collected between 0 and 24 hours of incubation by liquid-chromatography-coupled mass spectrometry (LC–MS); details: 2 µM
[15] = human gut metagenome, 24 h, 2 µM; remark: listed apart in the source
[16] = human gut metagenome, 24 h, 2 µM; remark: listed apart in the source
[17] = human gut metagenome, 24 h, 2 µM; remark: listed apart in the source
[18] = human gut metagenome, 24 h, 2 µM; remark: listed apart in the source
[19] = The drug is tested on Z-026 corresponding to metagenome with ENA study accession number: PRJEB37062 and ENA sample accession number: ERS12561825 for biotransformation under anaerobic condition. The drug concentrations were measured over 9 timepoints collected between 0 and 24 hours of incubation by liquid-chromatography-coupled mass spectrometry (LC–MS); details: 2 µM
[20] = The drug is tested on Z-017 corresponding to mouse gut metagenome with ENA study accession number: PRJEB37062 and ENA sample accession number: ERS12561816 for biotransformation under anaerobic condition. The drug concentrations were measured over 9 timepoints collected between 0 and 24 hours of incubation by liquid-chromatography-coupled mass spectrometry (LC–MS); details: 2 µM
Also: call rule not given here.

| SMILES | Bacterial Biotransformation [1] | Bacterial Biotransformation [2] | Bacterial Biotransformation [3] | Bacterial Biotransformation [4] | Bacterial Biotransformation [5] | Bacterial Biotransformation [6] | Bacterial Biotransformation [7] | Bacterial Biotransformation [8] | Bacterial Biotransformation [9] | Bacterial Biotransformation [10] | Bacterial Biotransformation [11] | Bacterial Biotransformation [12] | Bacterial Biotransformation [13] | Bacterial Biotransformation [14] | Bacterial Biotransformation [15] | Bacterial Biotransformation [16] | Bacterial Biotransformation [17] | Bacterial Biotransformation [18] | Bacterial Biotransformation [19] | Bacterial Biotransformation [20] |
| --- | --- | --- | --- | --- | --- | --- | --- | --- | --- | --- | --- | --- | --- | --- | --- | --- | --- | --- | --- | --- |
| CCCc1nc2c(C)cc(-c3nc4ccccc4n3C)cc2n1Cc1ccc(-c2ccccc2C(=O)O)cc1 | Compound metabolized | Compound metabolized | Compound metabolized | Compound metabolized | Compound metabolized | Compound metabolized | Compound metabolized | Compound metabolized | Compound metabolized | Compound metabolized | Compound metabolized | Compound metabolized | Compound metabolized | Compound metabolized | Compound metabolized | Compound metabolized | Compound metabolized | Compound metabolized | Compound metabolized | Compound metabolized |
| CCCCC(=O)N(Cc1ccc(-c2ccccc2-c2nnn[nH]2)cc1)[C@H](C(=O)O)C(C)C | Compound NOT metabolized | Compound metabolized | Compound metabolized | Compound metabolized | Compound metabolized | Compound NOT metabolized | Compound metabolized | Compound metabolized | Compound NOT metabolized | Compound metabolized | Compound metabolized | Compound metabolized | Compound NOT metabolized | Compound metabolized | Compound metabolized | Compound NOT metabolized | Compound metabolized | Compound metabolized | Compound NOT metabolized | Compound NOT metabolized |
| Cc1cc2c(cc1S(N)(=O)=O)S(=O)(=O)CCC2 | Compound NOT metabolized | Compound NOT metabolized | Compound NOT metabolized | Compound NOT metabolized | Compound NOT metabolized | Compound NOT metabolized | Compound NOT metabolized | Compound NOT metabolized | Compound NOT metabolized | Compound NOT metabolized | Compound NOT metabolized | Compound NOT metabolized | Compound NOT metabolized | Compound NOT metabolized | Compound NOT metabolized | Compound NOT metabolized | Compound NOT metabolized | Compound NOT metabolized | Compound NOT metabolized | Compound NOT metabolized |
| CN1CCc2c(c3ccccc3n2Cc2ccccc2)C1.CN1CCc2c(c3ccccc3n2Cc2ccccc2)C1.O=S(=O)(O)c1cccc2c(S(=O)(=O)O)cccc12 | Compound NOT metabolized | Compound metabolized | Compound NOT metabolized | Compound NOT metabolized | Compound NOT metabolized | Compound NOT metabolized | Compound NOT metabolized | Compound NOT metabolized | Compound NOT metabolized | Compound metabolized | Compound NOT metabolized | Compound NOT metabolized | Compound NOT metabolized | Compound NOT metabolized | Compound NOT metabolized | Compound NOT metabolized | Compound NOT metabolized | Compound metabolized | Compound NOT metabolized | Compound NOT metabolized |

Continued, values first:

| Bacterial Biotransformation [1] | Bacterial Biotransformation [2] | Bacterial Biotransformation [3] | Bacterial Biotransformation [4] | Bacterial Biotransformation [5] | Bacterial Biotransformation [6] | Bacterial Biotransformation [7] | Bacterial Biotransformation [8] | Bacterial Biotransformation [9] | Bacterial Biotransformation [10] | Bacterial Biotransformation [11] | Bacterial Biotransformation [12] | Bacterial Biotransformation [13] | Bacterial Biotransformation [14] | Bacterial Biotransformation [15] | Bacterial Biotransformation [16] | Bacterial Biotransformation [17] | Bacterial Biotransformation [18] | Bacterial Biotransformation [19] | Bacterial Biotransformation [20] | SMILES |
| --- | --- | --- | --- | --- | --- | --- | --- | --- | --- | --- | --- | --- | --- | --- | --- | --- | --- | --- | --- | --- |
| Compound metabolized | Compound metabolized | Compound NOT metabolized | Compound metabolized | Compound metabolized | Compound NOT metabolized | Compound metabolized | Compound metabolized | Compound NOT metabolized | Compound metabolized | Compound metabolized | Compound metabolized | Compound metabolized | Compound metabolized | Compound metabolized | Compound NOT metabolized | Compound NOT metabolized | Compound metabolized | Compound NOT metabolized | Compound NOT metabolized | CN1CC(=O)N2[C@H](c3ccc4c(c3)OCO4)c3[nH]c4ccccc4c3C[C@@H]2C1=O |
| Compound metabolized | Compound metabolized | Compound metabolized | Compound metabolized | Compound metabolized | Compound NOT metabolized | Compound metabolized | Compound metabolized | Compound NOT metabolized | Compound metabolized | Compound metabolized | Compound NOT metabolized | Compound NOT metabolized | Compound metabolized | Compound NOT metabolized | Compound metabolized | Compound NOT metabolized | Compound NOT metabolized | Compound NOT metabolized | Compound NOT metabolized | COc1cc2nc(N(C)CCCNC(=O)C3CCCO3)nc(N)c2cc1OC (stereo not given) [ALFUZOSIN] |
